Test systems include A549; ACHN; CAKI-1; HCC 2998; HCT-116; HCT-15; HL-60; HOP-62; M14; MDA-MB-231; MDA-N; NCI-H522; NCI/ADR-RES; PC-3; SF-268; SK-OV-3; SN12C; SNB-19; SW-620; RXF 393.
Holding throughout (experiment): NCI tumour cell line growth inhibition, 48 h

Structures are written as SMILES.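 Growth conditions: 96-well plates. Treatment: test compound, 48 hours, 5 concentrations. Analysis: linear interpolation between bracketing concentrations; unreached endpoints set to highest concentration. GI50 is the concentration that inhibits growth by half.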 The source made the active and inactive calls. Rule as the data show it: active = GI50 up to about 1.1 µM and inactive = higher. Peptide text beside a SMILES is read from it. * marks the point of attachment. Cbz = O=C(OCc1ccccc1)*; Boc = CC(C)(C)OC(=O)*; OBn = c1ccc(CO*)cc1 Where only a bound is given, the exact number is not on record here.

Turning to `COC(=O)C1CCC(=O)N1C(c1ccc2c(c1)OCO2)c1ccc2c(c1)OCO2` (stereo not given), the GI50 in the assay on A549 is > 100 µM (inactive); in the assay with ACHN, > 100 µM (inactive); in the assay with CAKI-1, > 100 µM (inactive); with HCC 2998, > 100 µM (inactive); with HCT-116 it was > 100 µM (inactive); in the assay on HCT-15 it was > 100 µM. Also, the GI50 in the assay on HL-60, in the assay with HOP-62, in the assay on M14, in the assay with MDA-MB-231, with MDA-N and in the assay on NCI-H522 was > 100 µM (inactive) throughout. Moreover, the GI50 in the assay on NCI/ADR-RES, in the assay with PC-3, in the assay with SF-268, in the assay with SK-OV-3, in the assay on SN12C and in the assay on SNB-19 was > 100 µM (inactive) in each case. For the same compound, in the assay on SW-620, the GI50 is > 100 µM (inactive).

As for `CCN1C(=O)C(=C/C=C/c2ccc(N(CC)CC)cc2)C(=O)N(CC)C1=S`, the GI50 was > 100 µM (inactive) with A549; > 100 µM (inactive) in the assay on ACHN; > 100 µM (inactive) with CAKI-1; > 100 µM (inactive) with HCC 2998; > 100 µM (inactive) in the assay with HCT-116; > 100 µM in the assay with HCT-15. The GI50 with HL-60 is 23.6 µM (inactive); in the assay on HOP-62 it was 21.7 µM (inactive); in the assay with M14 it was > 100 µM (inactive); in the assay on MDA-MB-231 it was > 100 µM (inactive); with MDA-N it was 74.8 µM (inactive); in the assay with NCI/ADR-RES it was 33.9 µM (inactive). Moreover, the GI50 was 72.4 µM (inactive) in the assay on PC-3; > 100 µM (inactive) in the assay with RXF 393; > 100 µM (inactive) in the assay on SF-268; > 100 µM (inactive) in the assay with SK-OV-3; > 100 µM (inactive) with SN12C; > 100 µM (inactive) in the assay with SNB-19. Moreover, the GI50 in the assay with SW-620 was > 100 µM (inactive).

For the compound `CC1(C)N=C(N)N=C(N)N1c1cccc(C(=O)Nc2ccc(S(=O)(=O)F)cc2)c1`, the GI50 in the assay on A549 is > 100 µM (inactive); in the assay on ACHN, > 100 µM (inactive); in the assay with CAKI-1, > 100 µM (inactive); in the assay with HCT-116 it was > 100 µM (inactive); in the assay with HCT-15 it was > 100 µM; in the assay on HL-60, > 100 µM (inactive). The GI50 in the assay on HOP-62, in the assay with M14, with MDA-MB-231, in the assay with MDA-N, in the assay on NCI-H522 and with NCI/ADR-RES was > 100 µM (inactive) in each case. Moreover, the GI50 in the assay with PC-3, with RXF 393, in the assay on SF-268, in the assay on SK-OV-3, in the assay with SN12C and in the assay with SNB-19 was > 100 µM (inactive) each time. Also, the GI50 in the assay with SW-620 was > 100 µM (inactive).

As for `O=C1CSC(=S)N1` [RHODANINE], the GI50 with A549 was > 100 µM (inactive); in the assay on ACHN, > 100 µM (inactive); with CAKI-1, > 100 µM (inactive); in the assay on HCC 2998, > 100 µM (inactive); in the assay on HCT-116, > 100 µM (inactive); in the assay on HCT-15, > 100 µM. The GI50 in the assay on HL-60, in the assay with HOP-62, in the assay on M14, in the assay on MDA-MB-231, in the assay on MDA-N and in the assay with NCI-H522 was > 100 µM (inactive) each time. The GI50 in the assay on NCI/ADR-RES, with PC-3, in the assay on SF-268, in the assay on SN12C, in the assay with SNB-19 and in the assay with SW-620 was > 100 µM (inactive) throughout.

For the compound `O=c1c(Sc2c(SCSc3cnc4ccccc4c3Sc3c[nH]c4ccccc4c3=O)cnc3ccccc23)c[nH]c2ccccc12`, the GI50 with A549 is > 10 µM (inactive); in the assay with ACHN, > 100 µM (inactive); in the assay with CAKI-1, > 100 µM (inactive); with HCC 2998, > 100 µM (inactive); with HCT-116, > 100 µM (inactive); in the assay on HCT-15, 96.8 µM. Moreover, the GI50 is 0.54 µM (active) in the assay on HL-60; 94.2 µM (inactive) in the assay on HOP-62; > 100 µM (inactive) in the assay on M14; 34.9 µM (inactive) in the assay on MDA-MB-231; > 100 µM (inactive) in the assay with MDA-N; > 100 µM (inactive) with NCI-H522. Also, the GI50 is > 100 µM (inactive) in the assay on NCI/ADR-RES; > 10 µM (inactive) in the assay with PC-3; 92.3 µM (inactive) in the assay on SF-268; > 100 µM (inactive) with SN12C; 46.6 µM (inactive) in the assay on SNB-19; 44.7 µM (inactive) in the assay with SW-620.

Turning to `Cc1cn([C@H]2C=C[C@@H](CO)O2)c(=O)[nH]c1=O` [STAVUDINE], the GI50 with A549 is > 1000 µM (inactive); with ACHN, > 1000 µM (inactive); with CAKI-1 it was 307 µM (inactive); in the assay on HCC 2998 it was > 1000 µM (inactive); with HCT-116, > 1000 µM (inactive); with HCT-15 it was > 1000 µM. The GI50 is 348 µM (inactive) in the assay on HL-60; > 1000 µM (inactive) with HOP-62; > 1000 µM (inactive) in the assay with M14; > 1000 µM (inactive) in the assay on MDA-MB-231; > 1000 µM (inactive) in the assay with MDA-N; 350 µM (inactive) with NCI-H522. Besides, the GI50 was 678 µM (inactive) with NCI/ADR-RES; > 1000 µM (inactive) in the assay on PC-3; > 1000 µM (inactive) in the assay with SF-268; > 1000 µM (inactive) in the assay on SK-OV-3; > 1000 µM (inactive) in the assay with SN12C; > 1000 µM (inactive) in the assay with SNB-19. For the same compound, in the assay on SW-620, the GI50 is 418 µM (inactive).

As to `CN(C(=O)Cc1cc(Cl)c(Cl)cc1N=C=S)[C@H]1CCCC[C@@H]1N1CCCC1`, the GI50 in the assay on A549 is 15.4 µM (inactive); in the assay on ACHN, 15.4 µM (inactive); in the assay on CAKI-1 it was 15.8 µM (inactive); with HCT-116 it was 8.49 µM (inactive); in the assay with HCT-15, 13.6 µM; in the assay on HL-60 it was 10.1 µM (inactive). In addition, the GI50 is 14.2 µM (inactive) in the assay with HOP-62; 15.5 µM (inactive) with M14; 14.3 µM (inactive) in the assay with MDA-MB-231; 14.8 µM (inactive) with MDA-N; 13.1 µM (inactive) in the assay on NCI-H522; 17.8 µM (inactive) in the assay with NCI/ADR-RES. Further, the GI50 in the assay with PC-3 was 13.5 µM (inactive); in the assay with RXF 393, 4.45 µM (inactive); with SF-268, 15.8 µM (inactive); in the assay with SK-OV-3, 18 µM (inactive); with SN12C, 16.6 µM (inactive); in the assay on SNB-19, 13.9 µM (inactive). The GI50 in the assay on SW-620 is 5.47 µM (inactive).

As for `CN(Cc1cnc2nc(N)nc(N)c2n1)c1ccc(C(=O)NCS(=O)(=O)O)cc1`, the GI50 in the assay with A549 was 95.7 µM (inactive); in the assay with ACHN it was 64.9 µM (inactive); with HCC 2998, > 100 µM (inactive); with HCT-116, 43.3 µM (inactive); in the assay on HCT-15, > 100 µM; with HOP-62, > 100 µM (inactive). The GI50 in the assay on M14 was > 100 µM (inactive); in the assay with MDA-MB-231 it was > 100 µM (inactive); in the assay on MDA-N, 63.1 µM (inactive); with NCI-H522 it was > 100 µM (inactive); in the assay with NCI/ADR-RES it was 34.3 µM (inactive); in the assay on PC-3, 48.1 µM (inactive). For the same compound, the GI50 was 33.3 µM (inactive) in the assay with SF-268; > 100 µM (inactive) in the assay with SK-OV-3; > 100 µM (inactive) in the assay with SN12C; > 100 µM (inactive) in the assay with SNB-19; 78.5 µM (inactive) in the assay with SW-620.

For `COC(=O)C(CCCCNC(=O)OCc1ccccc1)NC(=O)C(CCC(=O)OCc1ccccc1)NC(=O)OC(C)(C)C` (stereo not given) (Boc-Glu(OBn)-Lys(Cbz)-OMe; configuration not given here), the GI50 with A549 is > 100 µM (inactive); with ACHN it was > 100 µM (inactive); in the assay on CAKI-1, 86.7 µM (inactive); in the assay with HCT-116 it was > 100 µM (inactive); in the assay on HCT-15 it was > 100 µM; in the assay on HL-60, > 100 µM (inactive). For the same compound, the GI50 in the assay with HOP-62 is 15 µM (inactive); in the assay with M14, > 100 µM (inactive); in the assay on MDA-MB-231, 73.6 µM (inactive); in the assay on MDA-N it was > 100 µM (inactive); in the assay with NCI-H522, 56.9 µM (inactive); in the assay with NCI/ADR-RES, > 100 µM (inactive). The GI50 in the assay with PC-3 was > 100 µM (inactive); in the assay on RXF 393, > 100 µM (inactive); in the assay with SF-268, > 100 µM (inactive); with SK-OV-3, 46.6 µM (inactive); with SN12C, > 100 µM (inactive); with SNB-19 it was 40.2 µM (inactive). Moreover, in the assay on SW-620, the GI50 is > 100 µM (inactive).

Consider `CC(=O)NC1C(OCc2ccccc2)OC(CO)C(O)C1OCC(=O)NC(C)C(=O)NC(CCC(=O)NCCCCNc1ccc([N+](=O)[O-])c2[nH]c3ccccc3c(=O)c12)C(N)=O` (stereo not given), for which the GI50 is 50.1 µM (inactive) with A549; 48.9 µM (inactive) with ACHN; > 100 µM (inactive) with CAKI-1; > 100 µM (inactive) in the assay with HCC 2998; 63.7 µM (inactive) in the assay with HCT-116; 65 µM with HCT-15. For the same compound, the GI50 was > 100 µM (inactive) in the assay on HL-60; > 100 µM (inactive) in the assay with HOP-62; 71.1 µM (inactive) in the assay with M14; > 100 µM (inactive) with MDA-MB-231; > 100 µM (inactive) in the assay with MDA-N; > 100 µM (inactive) with NCI/ADR-RES. Besides, the GI50 is > 100 µM (inactive) with PC-3; 38.8 µM (inactive) in the assay with SF-268; > 100 µM (inactive) in the assay on SK-OV-3; > 100 µM (inactive) in the assay with SN12C; 36.7 µM (inactive) in the assay on SNB-19; > 100 µM (inactive) in the assay on SW-620.

Values taken from ChEMBL document CHEMBL1201862, “PubChem BioAssay data set” (2004).
